ChEMBL document CHEMBL4396896, “N-Aminoacyl and N-hydroxyacyl derivatives of diosgenyl 2-amino-2-deoxy-β-d-glucopyranoside: Synthesis, antimicrobial and hemolytic activities” (Bioorg Med Chem, 2019)
Converted amounts (≈) assume the structure as drawn.

Legend:
Proteus mirabilis = assay: Antibacterial activity against Proteus mirabilis PCM 543 incubated in MHB II under aerobic condition for 18 hrs using initial inoculum of 5 x 10^5 CFU/ml by serial dilution method; type: functional; details: PCM 543, 18 h
[1] = Haemolytic activity in human erythrocytes assessed as haemolytic index by measuring hemoglobin release at 128 mg/L incubated for 1 hr by microplate spectrophotometry; type: ADME, cell-based, Erythrocyte; details: read-out: HI
Klebsiella pneumoniae = assay: Antibacterial activity against Klebsiella pneumoniae ATCC 700603 incubated in MHB II under aerobic condition for 18 hrs using initial inoculum of 5 x 10^5 CFU/ml by serial dilution method; type: functional; details: ATCC 700603, 18 h
[2] = system: Staphylococcus epidermidis; assay: Antibacterial activity against Staphylococcus epidermidis PCM 2118 incubated in MHB II under aerobic condition for 18 hrs using initial inoculum of 5 x 10^5 CFU/ml by serial dilution method; type: functional; details: PCM 2118, 18 h
Bacillus subtilis = assay: Antibacterial activity against Bacillus subtilis ATCC 6633 incubated in MHB II under aerobic condition for 18 hrs using initial inoculum of 5 x 10^5 CFU/ml by serial dilution method; type: functional; details: ATCC 6633, 18 h
Staphylococcus aureus = assay: Antibacterial activity against Staphylococcus aureus ATCC 25923 incubated in MHB II under aerobic condition for 18 hrs using initial inoculum of 5 x 10^5 CFU/ml by serial dilution method; type: functional; details: ATCC 25923, 18 h
Enterococcus faecalis [3] = assay: Antibacterial activity against Enterococcus faecalis ATCC 29212 incubated in MHB II under aerobic condition for 18 hrs using initial inoculum of 5 x 10^5 CFU/ml by serial dilution method; type: functional; details: ATCC 29212, 18 h
Candida albicans [4] = assay: Antifungal activity against Candida albicans ATCC 10231 incubated in sabouraud liquid medium under aerobic condition for 48 hrs using initial inoculum of 10^3 CFU/ml by serial dilution method; type: functional; details: ATCC 10231, 48 h
Pseudomonas aeruginosa = assay: Antibacterial activity against Pseudomonas aeruginosa ATCC 9027 incubated in MHB II under aerobic condition for 18 hrs using initial inoculum of 5 x 10^5 CFU/ml by serial dilution method; type: functional; details: ATCC 9027, 18 h
Yarrowia lipolytica = assay: Antifungal activity against Candida lipolytica PCM 2680 incubated in sabouraud liquid medium under aerobic condition for 48 hrs using initial inoculum of 10^3 CFU/ml by serial dilution method; type: functional; details: PCM 2680, 48 h
Escherichia coli = assay: Antibacterial activity against Escherichia coli ATCC 25922 incubated in MHB II under aerobic condition for 18 hrs using initial inoculum of 5 x 10^5 CFU/ml by serial dilution method; type: functional; details: ATCC 25922, 18 h
Enterococcus faecalis [5] = assay: microbe, parasite or virus in culture; details: ATCC 29212
Description: Antibacterial activity against Enterococcus faecalis ATCC 29212 by antimicrobial susceptibility based testing method

[6] = Haemolytic activity in human erythrocytes assessed as haemolytic index by measuring hemoglobin release at 0.5 to 128 mg/L incubated for 1 hr by microplate spectrophotometry relative to control; type: ADME, cell-based, Erythrocyte; details: human erythrocytes, read-out: HI
[7] = Haemolytic activity in human erythrocytes assessed as haemolytic index by measuring hemoglobin release at 64 mg/L incubated for 1 hr by microplate spectrophotometry; type: ADME, cell-based, Erythrocyte; details: read-out: HI
Candida albicans [8] = assay: […] activity against Candida albicans ATCC 10231 by antimicrobial susceptibility based testing method; type: functional

Structure (SMILES)	MIC (Proteus mirabilis)	MIC (Klebsiella pneumoniae)	MIC [2]	MIC (Bacillus subtilis)	MIC (Staphylococcus aureus)	MIC (Enterococcus faecalis [3])	MIC (Candida albicans [4])	MIC (Pseudomonas aeruginosa)	MIC (Yarrowia lipolytica)	MIC (Escherichia coli)	hemolysis at 1 h, 128 mg/L [1]	MIC (Enterococcus faecalis [5])	hemolysis at 1 h [6]	hemolysis at 1 h, 64 mg/L [7]	MIC (Candida albicans [8])
C[C@@H]1CC[C@@]2(OC1)O[C@H]1C[C@H]3[C@@H]4CC=C5C[C@@H](O[C@@H]6O[C@H](CO)[C@@H](O)[C@H](O)[C@H]6NC(=O)[C@@H](N)[C@@H](C)O)CC[C@]5(C)[C@H]4CC[C@]3(C)[C@H]1[C@@H]2C	> 128 µg/mL	> 128 µg/mL	16 µg/mL (≈ 23.6 µM)	32 µg/mL (≈ 47.3 µM)	16 µg/mL (≈ 23.6 µM)	16 µg/mL (≈ 23.6 µM)	4 µg/mL (≈ 5.91 µM)	> 128 µg/mL	4 µg/mL (≈ 5.91 µM)	> 128 µg/mL	56%	–	–	–	–
CN[C@H](CC(C)C)C(=O)N[C@H]1C(=O)N[C@@H](CC(N)=O)C(=O)N[C@H]2C(=O)N[C@H]3C(=O)N[C@H](C(=O)N[C@H](C(=O)O)c4cc(O)cc(O)c4-c4cc3ccc4O)[C@H](O)c3ccc(c(Cl)c3)Oc3cc2cc(c3O[C@@H]2O[C@H](CO)[C@@H](O)[C@H](O)[C@H]2O[C@H]2C[C@](C)(N)[C@H](O)[C@H](C)O2)Oc2ccc(cc2Cl)[C@H]1O [VANCOMYCIN]	–	–	–	–	–	–	–	–	–	–	–	2 µg/mL (≈ 1.38 µM)	–	–	–
C[C@@H]1CC[C@@]2(OC1)O[C@H]1C[C@H]3[C@@H]4CC=C5C[C@@H](O[C@@H]6O[C@H](CO)[C@@H](O)[C@H](O)[C@H]6NC(=O)[C@H](C)N)CC[C@]5(C)[C@H]4CC[C@]3(C)[C@H]1[C@@H]2C	> 128 µg/mL	> 128 µg/mL	4 µg/mL (≈ 6.18 µM)	8 µg/mL (≈ 12.4 µM)	4 µg/mL (≈ 6.18 µM)	4 µg/mL (≈ 6.18 µM)	4 µg/mL (≈ 6.18 µM)	> 128 µg/mL	2 µg/mL (≈ 3.09 µM)	> 128 µg/mL	–	–	< 10%	–	–
CC(=O)N[C@H]1[C@H](O[C@H]2CC[C@@]3(C)C(=CC[C@H]4[C@@H]5C[C@@H]6O[C@]7(CC[C@@H](C)CO7)[C@@H](C)[C@@H]6[C@@]5(C)CC[C@@H]43)C2)O[C@H](CO)[C@@H](O)[C@@H]1O	> 128 µg/mL	> 128 µg/mL	> 128 µg/mL	> 128 µg/mL	> 128 µg/mL	> 128 µg/mL	> 128 µg/mL	> 128 µg/mL	–	> 128 µg/mL	–	–	–	–	–
C[C@@H]1CC[C@@]2(OC1)O[C@H]1C[C@H]3[C@@H]4CC=C5C[C@@H](O[C@@H]6O[C@H](CO)[C@@H](O)[C@H](O)[C@H]6NC(=O)[C@H](C)NC(=O)[C@H](C)N)CC[C@]5(C)[C@H]4CC[C@]3(C)[C@H]1[C@@H]2C	> 128 µg/mL	> 128 µg/mL	128 µg/mL (≈ 178 µM)	64 µg/mL (≈ 89.1 µM)	128 µg/mL (≈ 178 µM)	> 128 µg/mL	64 µg/mL (≈ 89.1 µM)	> 128 µg/mL	32 µg/mL (≈ 44.6 µM)	> 128 µg/mL	74%	–	–	57%	–
C[C@@H]1CC[C@@]2(OC1)O[C@H]1C[C@H]3[C@@H]4CC=C5C[C@@H](O[C@@H]6O[C@H](CO)[C@@H](O)[C@H](O)[C@H]6NC(=O)C(F)(F)F)CC[C@]5(C)[C@H]4CC[C@]3(C)[C@H]1[C@@H]2C	> 128 µg/mL	> 128 µg/mL	> 128 µg/mL	> 128 µg/mL	> 128 µg/mL	> 128 µg/mL	> 128 µg/mL	> 128 µg/mL	–	> 128 µg/mL	–	–	–	–	–
C[C@@H]1CC[C@@]2(OC1)O[C@H]1C[C@H]3[C@@H]4CC=C5C[C@@H](O[C@@H]6O[C@H](CO)[C@@H](O)[C@H](O)[C@H]6NC(=O)CO)CC[C@]5(C)[C@H]4CC[C@]3(C)[C@H]1[C@@H]2C	> 128 µg/mL	> 128 µg/mL	> 128 µg/mL	> 128 µg/mL	> 128 µg/mL	> 128 µg/mL	> 128 µg/mL	> 128 µg/mL	> 128 µg/mL	> 128 µg/mL	–	–	< 10%	–	–
CNCC(=O)N[C@H]1[C@H](O[C@H]2CC[C@@]3(C)C(=CC[C@H]4[C@@H]5C[C@@H]6O[C@]7(CC[C@@H](C)CO7)[C@@H](C)[C@@H]6[C@@]5(C)CC[C@@H]43)C2)O[C@H](CO)[C@@H](O)[C@@H]1O	> 128 µg/mL	> 128 µg/mL	4 µg/mL (≈ 6.18 µM)	4 µg/mL (≈ 6.18 µM)	4 µg/mL (≈ 6.18 µM)	4 µg/mL (≈ 6.18 µM)	4 µg/mL (≈ 6.18 µM)	> 128 µg/mL	4 µg/mL (≈ 6.18 µM)	> 128 µg/mL	–	–	< 10%	–	–
C[C@@H]1[C@H](O)[C@@H](C)/C=C/C=C/C=C/C=C/C=C/C=C/C=C/[C@H](O[C@@H]2O[C@H](C)[C@@H](O)[C@H](N)[C@@H]2O)C[C@@H]2O[C@](O)(C[C@@H](O)C[C@@H](O)[C@H](O)CC[C@@H](O)C[C@@H](O)CC(=O)O[C@H]1C)C[C@H](O)[C@H]2C(=O)O [AMPHOTERICIN B]	–	–	–	–	–	–	–	–	–	–	–	–	–	–	0.5 µg/mL (≈ 0.541 µM)
C[C@@H]1CC[C@@]2(OC1)O[C@H]1C[C@H]3[C@@H]4CC=C5C[C@@H](O[C@@H]6O[C@H](CO)[C@@H](O)[C@H](O)[C@H]6NC(=O)[C@@H](C)N)CC[C@]5(C)[C@H]4CC[C@]3(C)[C@H]1[C@@H]2C	> 128 µg/mL	> 128 µg/mL	2 µg/mL (≈ 3.09 µM)	2 µg/mL (≈ 3.09 µM)	2 µg/mL (≈ 3.09 µM)	2 µg/mL (≈ 3.09 µM)	4 µg/mL (≈ 6.18 µM)	> 128 µg/mL	8 µg/mL (≈ 12.4 µM)	> 128 µg/mL	–	–	< 10%	–	–
CSCC[C@H](N)C(=O)N[C@H]1[C@H](O[C@H]2CC[C@@]3(C)C(=CC[C@H]4[C@@H]5C[C@@H]6O[C@]7(CC[C@@H](C)CO7)[C@@H](C)[C@@H]6[C@@]5(C)CC[C@@H]43)C2)O[C@H](CO)[C@@H](O)[C@@H]1O	> 128 µg/mL	> 128 µg/mL	4 µg/mL (≈ 5.66 µM)	> 128 µg/mL	> 128 µg/mL	4 µg/mL (≈ 5.66 µM)	–	> 128 µg/mL	–	> 128 µg/mL	–	–	< 4%	–	–

Further lines, with some results ahead:

MIC (Proteus mirabilis)	MIC (Klebsiella pneumoniae)	MIC [2]	MIC (Bacillus subtilis)	MIC (Staphylococcus aureus)	MIC (Enterococcus faecalis [3])	MIC (Candida albicans [4])	MIC (Pseudomonas aeruginosa)	MIC (Yarrowia lipolytica)	MIC (Escherichia coli)	Structure (SMILES)	hemolysis at 1 h, 128 mg/L [1]	MIC (Enterococcus faecalis [5])	hemolysis at 1 h [6]	hemolysis at 1 h, 64 mg/L [7]	MIC (Candida albicans [8])
> 128 µg/mL	> 128 µg/mL	> 128 µg/mL	> 128 µg/mL	> 128 µg/mL	> 128 µg/mL	16 µg/mL (≈ 24.1 µM)	> 128 µg/mL	2 µg/mL (≈ 3.01 µM)	> 128 µg/mL	C[C@@H]1CC[C@@]2(OC1)O[C@H]1C[C@H]3[C@@H]4CC=C5C[C@@H](O[C@@H]6O[C@H](CO)[C@@H](O)[C@H](O)[C@H]6NC(=O)[C@@H](O)CO)CC[C@]5(C)[C@H]4CC[C@]3(C)[C@H]1[C@@H]2C	56%	–	–	27%	–
> 128 µg/mL	> 128 µg/mL	> 128 µg/mL	> 128 µg/mL	> 128 µg/mL	> 128 µg/mL	> 128 µg/mL	> 128 µg/mL	> 128 µg/mL	> 128 µg/mL	CC(=O)NCC(=O)N[C@H]1[C@H](O[C@H]2CC[C@@]3(C)C(=CC[C@H]4[C@@H]5C[C@@H]6O[C@]7(CC[C@@H](C)CO7)[C@@H](C)[C@@H]6[C@@]5(C)CC[C@@H]43)C2)O[C@H](CO)[C@@H](O)[C@@H]1O	–	–	< 10%	–	–
> 128 µg/mL	> 128 µg/mL	4 µg/mL (≈ 6.03 µM)	8 µg/mL (≈ 12.1 µM)	8 µg/mL (≈ 12.1 µM)	16 µg/mL (≈ 24.1 µM)	4 µg/mL (≈ 6.03 µM)	> 128 µg/mL	4 µg/mL (≈ 6.03 µM)	> 128 µg/mL	C[C@@H]1CC[C@@]2(OC1)O[C@H]1C[C@H]3[C@@H]4CC=C5C[C@@H](O[C@@H]6O[C@H](CO)[C@@H](O)[C@H](O)[C@H]6NC(=O)[C@@H](N)CO)CC[C@]5(C)[C@H]4CC[C@]3(C)[C@H]1[C@@H]2C	46%	–	–	–	–
> 128 µg/mL	> 128 µg/mL	> 128 µg/mL	> 128 µg/mL	> 128 µg/mL	> 128 µg/mL	> 128 µg/mL	> 128 µg/mL	> 128 µg/mL	> 128 µg/mL	C[C@@H]1CC[C@@]2(OC1)O[C@H]1C[C@H]3[C@@H]4CC=C5C[C@@H](O[C@@H]6O[C@H](CO)[C@@H](O)[C@H](O)[C@H]6NC(=O)[C@H](C)O)CC[C@]5(C)[C@H]4CC[C@]3(C)[C@H]1[C@@H]2C	–	–	< 10%	–	–
> 128 µg/mL	> 128 µg/mL	16 µg/mL (≈ 22.7 µM)	32 µg/mL (≈ 45.5 µM)	16 µg/mL (≈ 22.7 µM)	16 µg/mL (≈ 22.7 µM)	4 µg/mL (≈ 5.68 µM)	> 128 µg/mL	4 µg/mL (≈ 5.68 µM)	> 128 µg/mL	C[C@@H]1CC[C@@]2(OC1)O[C@H]1C[C@H]3[C@@H]4CC=C5C[C@@H](O[C@@H]6O[C@H](CO)[C@@H](O)[C@H](O)[C@H]6NC(=O)[C@@H](N)CCCCN)CC[C@]5(C)[C@H]4CC[C@]3(C)[C@H]1[C@@H]2C	92%	–	–	–	–
